In US9512175B2, “Macrocyclic inhibitors of flaviviridae viruses” (Gilead Sciences, Inc., priority 2012, dated 2016) one finds ring closure, isolated yield and ring closure, yield after HPLC data, which are given here for 3 compounds.

Read-outs that look alike come from different tables or passages of the source.

For series [1] the following is noted: rcm bond.
The conditions of series [2]: from C=Cc1ccc2ccc([C@@H](C)OC(=O)[C@@H]3CCCN(C(=O)[C@H](C)NC(=O)[C@@H](NC(=O)[C@@H](/C=C/C)CC4CC4)C(C)C)N3)nc2c1; rcm bond; 21-membered ring; Hoveyda-Grubbs II (3x20 mol%); 1,2-dichloroethane; 2.44 mM; 80.0 °C.

In turn, `CC(C)[C@@H]1NC(=O)C=Cc2cc3cc(ccc3cn2)[C@@H](C)NC(=O)[C@@H]2CCCN(N2)C(=O)[C@H](C)NC1=O` came in with a ring closure, isolated yield in series [1] (from C=Cc1cc2cc([C@@H](C)NC(=O)[C@@H]3CCCN(C(=O)[C@H](C)NC(=O)[C@@H](NC(=O)/C=C/C)C(C)C)N3)ccc2cn1, 20-membered ring, Hoveyda-Grubbs II (2 x 10 mol%), toluene, 3.86 mM) of 1.2%.

Turning to `CC(C)[C@@H]1NC(=O)[C@H](CC2CC2)C=Cc2ccc3ccc(nc3c2)[C@@H](C)OC(=O)[C@@H]2CCCN(N2)C(=O)[C@H](C)NC1=O`, the ring closure, yield after HPLC in series [2] stood at 1.3%.

“(E)-pent-3-enoyl-hPhe-Ala-Piz-O-(R)-1-(3-vinyl-isoquinolin-6-yl)ethyl ester?”: the ring closure, isolated yield in series [1] (the molecule shown is the open-chain precursor, 21-membered ring, Hoveyda-Grubbs II (portions), chlorobenzene, 4.8 mM, 110.0 °C) was found to be 12%.
